Counter-ions that a name gives are not always drawn.
Target: T1, ΔF508 mutant CFTR (Homo sapiens, UniProt P13569, DEL508-508)
T1 construct: expressed in transfected cells; host or cells: Fischer rat thyroid (FRT) cells
Experiment: Fluorescence (YFP halide quenching) assay of ΔF508 mutant CFTR activity in FRT cells
Type: cell-based
Set-up: key: fold of mean activity with forskolin alone (I− quenching rate)
Conditions: FRT cells expressing ΔF508-CFTR and YFP-H148Q/I152L, rescued at 27° C. 20-24 h; forskolin 20 μM + test compound 20 μM for 20 min; I− influx rate normalized to forskolin alone
Description: The ΔF508 mutant CFTR activities of the CFTR modulators are detected using the Fluorescence Assay developed by Pedemonte (Pedemonte N., et al., Antihypertensive 1,4-dihydropyridines as correctors of the cystic fibrosis transmembrane conductance regulator channel gating defect caused by cystic fibrosis mutations, Mol. Pharmacol., 2005, 68, 1736-1746).
Fischer rat thyroid (FRT) cells, stably transfected with ΔF508 were retransfected with the YFP-H148Q/I152L fluorescent protein. The cells were plated (100,000 cells/well) on black 96-well microplates with clear plastic bottom (Corning Life Sciences, Acton, Mass.).
The 96-well microplates containing FRT cells expressing F508-CFTR and the halide-sensitive YFP were incubated at 27° C. for 20 to 24 h to allow rescue of the mutant protein to the plasma membrane. After incubation, cells were washed with PBS (containing 137 mM NaCl, 2.7 mM KCl, 8.1 mM Na2HPO4, 1.5 mM KH2PO4, 1 mM CaCl2, and 0.5 mM MgCl2) and stimulated for 20 min with forskolin (20 μM) and test compounds (20 μM) in a final volume of 60 μl. Microplates were then transferred to a microplate reader for CFTR activity determination. Each assay consisted of a continuous 14-s fluorescence reading (5 points per second) with 2 s before and 12 s after injection of 165 μl of an iodide-containing solution (PBS with Cl^− replaced by I^−). Final iodide concentration in the wells was 100 mM. […] To determine I^− influx rate, the final 11 s of the data for each well were fitted with an exponential function to extrapolate initial slope. CFTR activity was determined by measuring the rate of fluorescence quenching induced by extracellular addition of I^−. Data are normalized to the mean activity measured in the presence of forskolin alone.

T1 sequence (P13569 with tags, fused parts or gaps DEL508-508): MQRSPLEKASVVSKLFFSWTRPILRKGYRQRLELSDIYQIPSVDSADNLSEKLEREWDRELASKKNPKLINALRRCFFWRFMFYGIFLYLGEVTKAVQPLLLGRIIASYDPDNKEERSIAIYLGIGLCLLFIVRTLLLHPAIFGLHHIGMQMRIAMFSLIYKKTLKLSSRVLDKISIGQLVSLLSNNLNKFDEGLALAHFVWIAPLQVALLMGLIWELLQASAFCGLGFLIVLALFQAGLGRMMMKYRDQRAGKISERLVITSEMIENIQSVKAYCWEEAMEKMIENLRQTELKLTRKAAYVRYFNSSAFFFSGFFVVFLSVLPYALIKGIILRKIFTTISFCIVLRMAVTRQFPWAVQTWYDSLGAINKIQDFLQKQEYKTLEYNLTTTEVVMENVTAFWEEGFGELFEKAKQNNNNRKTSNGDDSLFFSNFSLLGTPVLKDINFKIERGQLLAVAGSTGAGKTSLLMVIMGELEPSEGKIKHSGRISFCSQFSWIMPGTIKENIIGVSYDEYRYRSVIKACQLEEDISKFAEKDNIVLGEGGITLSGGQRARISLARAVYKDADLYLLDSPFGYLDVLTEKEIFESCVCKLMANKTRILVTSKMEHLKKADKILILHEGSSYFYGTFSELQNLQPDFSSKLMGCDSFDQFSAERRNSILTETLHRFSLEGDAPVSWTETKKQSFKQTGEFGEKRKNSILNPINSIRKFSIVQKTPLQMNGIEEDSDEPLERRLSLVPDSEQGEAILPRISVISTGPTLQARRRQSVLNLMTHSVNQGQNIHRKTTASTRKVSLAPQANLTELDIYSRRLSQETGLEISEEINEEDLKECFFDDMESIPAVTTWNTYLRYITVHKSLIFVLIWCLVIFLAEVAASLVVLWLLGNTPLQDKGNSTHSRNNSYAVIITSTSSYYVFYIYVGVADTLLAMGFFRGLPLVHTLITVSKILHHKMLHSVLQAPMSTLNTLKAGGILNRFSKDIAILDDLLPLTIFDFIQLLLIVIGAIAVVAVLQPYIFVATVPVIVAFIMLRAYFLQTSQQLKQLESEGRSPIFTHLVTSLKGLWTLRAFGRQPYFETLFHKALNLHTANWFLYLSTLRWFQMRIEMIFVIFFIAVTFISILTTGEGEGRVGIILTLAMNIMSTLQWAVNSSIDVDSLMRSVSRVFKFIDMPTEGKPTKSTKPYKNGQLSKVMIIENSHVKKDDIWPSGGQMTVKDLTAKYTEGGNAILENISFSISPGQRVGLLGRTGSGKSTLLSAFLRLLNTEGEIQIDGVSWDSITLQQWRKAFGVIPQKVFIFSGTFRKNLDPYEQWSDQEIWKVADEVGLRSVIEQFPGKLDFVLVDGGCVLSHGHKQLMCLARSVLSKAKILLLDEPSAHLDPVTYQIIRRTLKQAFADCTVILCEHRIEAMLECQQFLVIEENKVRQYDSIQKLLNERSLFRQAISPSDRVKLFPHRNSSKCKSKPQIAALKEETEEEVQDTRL

Cl.O=C(Nc1cncnc1OCC1CCNCC1)c1ccc(F)c(-c2c(F)cccc2F)n1 [Example 1, 6-(2,6-difluorophenyl)-5-fluoro-N-(4-(piperidin-4-ylmethoxy)pyrimidin-5-yl)picolinamide hydrochloride]
CFTR Activity: 1.2

Cl.O=C(Nc1cncnc1OCC1CNC1)c1ccc(F)c(-c2c(F)cccc2F)n1 [Example 2, N-(4-(azetidin-3-ylmethoxy)pyrimidin-5-yl)-6-(2,6-difluorophenyl)-5-fluoropicolinamide hydrochloride]
CFTR Activity: 0.5

Cl.O=C(Nc1cncnc1OC1CCNCC1)c1ccc(F)c(-c2c(F)cccc2F)n1 [Example 3, 6-(2,6-difluorophenyl)-5-fluoro-N-(4-(piperidin-4-yloxy)pyrimidin-5-yl)picolinamide hydrochloride]
CFTR Activity: 1.3

Cl.O=C(Nc1cncnc1OC1CCNC1)c1ccc(F)c(-c2c(F)cccc2F)n1 (centres unmarked) [Example 4, 6-(2,6-difluorophenyl)-5-fluoro-N-(4-(pyrrolidin-3-yloxy)pyrimidin-5-yl)picolinamide hydrochloride]
CFTR Activity: 0.7

Cl.O=C(Nc1cncnc1OC1CCCNC1)c1ccc(F)c(-c2c(F)cccc2F)n1 (centres unmarked) [Example 5, 6-(2,6-difluorophenyl)-5-fluoro-N-(4-(piperidin-3-yloxy)pyrimidin-5-yl)picolinamide hydrochloride]
CFTR Activity: 0.6

Cl.O=C(Nc1cncnc1OC1CCCNCC1)c1ccc(F)c(-c2c(F)cccc2F)n1 (centres unmarked) [Example 6, N-(4-(azepan-4-yloxy)pyrimidin-5-yl)-6-(2,6-difluorophenyl)-5-fluoropicolinamide hydrochloride]
CFTR Activity: 1.9

Cl.O=C(Nc1cncnc1OCC1CCCNC1)c1ccc(F)c(-c2c(F)cccc2F)n1 (centres unmarked) [Example 7, 6-(2,6-difluorophenyl)-5-fluoro-N-(4-(piperidin-3-ylmethoxy)pyrimidin-5-yl)picolinamide hydrochloride]
CFTR Activity: 0.5

Cl.O=C(Nc1cncnc1OCC1CCNC1)c1ccc(F)c(-c2c(F)cccc2F)n1 (centres unmarked) [Example 8, 6-(2,6-difluorophenyl)-5-fluoro-N-(4-(pyrrolidin-3-ylmethoxy)pyrimidin-5-yl)picolinamide hydrochloride]
CFTR Activity: 0.6

Cl.O=C(Nc1cncnc1OC1CNC1)c1ccc(F)c(-c2c(F)cccc2F)n1 [Example 9, N-(4-(azetidin-3-yloxy)pyrimidin-5-yl)-6-(2,6-difluorophenyl)-5-fluoropicolinamide hydrochloride]
CFTR Activity: 0.4

Cl.NC1CCC(Oc2ncncc2NC(=O)c2ccc(F)c(-c3c(F)cccc3F)n2)CC1 (centres unmarked) [Example 10, N-(4-(((1r,4r)-4-aminocyclohexyl)oxy)pyrimidin-5-yl)-6-(2,6-difluorophenyl)-5-fluoropicolinamide hydrochloride]
CFTR Activity: 1.9

Cl.NC1CCCC(Oc2ncncc2NC(=O)c2ccc(F)c(-c3c(F)cccc3F)n2)C1 (centres unmarked) [Example 11, N-(4-((3-aminocyclohexyl)oxy)pyrimidin-5-yl)-6-(2,6-difluorophenyl)-5-fluoropicolinamide hydrochloride]
CFTR Activity: 3.0

Cl.NCCCOc1ncncc1NC(=O)c1ccc(F)c(-c2c(F)cccc2F)n1 [Example 12, N-(4-(3-aminopropoxy)pyrimidin-5-yl)-6-(2,6-difluorophenyl)-5-fluoropicolinamide hydrochloride]
CFTR Activity: 0.7

CNCCCOc1ncncc1NC(=O)c1ccc(F)c(-c2c(F)cccc2F)n1.Cl [Example 13, 6-(2,6-difluorophenyl)-5-fluoro-N-(4-(3-(methylamino)propoxy)pyrimidin-5-yl)picolinamide hydrochloride]
CFTR Activity: 0.5

CN(C)CCCOc1ncncc1NC(=O)c1ccc(F)c(-c2c(F)cccc2F)n1.Cl [Example 14, 6-(2,6-difluorophenyl)-N-(4-(3-(dimethylamino)propoxy)pyrimidin-5-yl)-5-fluoropicolinamide hydrochloride]
CFTR Activity: 0.2

Cl.NCCCCOc1ncncc1NC(=O)c1ccc(F)c(-c2c(F)cccc2F)n1 [Example 15, N-(4-(4-aminobutoxy)pyrimidin-5-yl)-6-(2,6-difluorophenyl)-5-fluoropicolinamide hydrochloride]
CFTR Activity: 0.5

CNCCCCOc1ncncc1NC(=O)c1ccc(F)c(-c2c(F)cccc2F)n1.Cl [Example 16, 6-(2,6-difluorophenyl)-5-fluoro-N-(4-(4-(methylamino)butoxy)pyrimidin-5-yl)picolinamide hydrochloride]
CFTR Activity: 0.5

O=C(Nc1cncnc1OCCCO)c1ccc(F)c(-c2c(F)cccc2F)n1 [Example 17, 6-(2,6-difluorophenyl)-5-fluoro-N-(4-(3-hydroxypropoxy)pyrimidin-5-yl)picolinamide]
CFTR Activity: 0.2

CC(O)CCOc1ncncc1NC(=O)c1ccc(F)c(-c2c(F)cccc2F)n1 (centres unmarked) [Example 18, 6-(2,6-difluorophenyl)-5-fluoro-N-(4-(3-hydroxybutoxy)pyrimidin-5-yl)picolinamide]
CFTR Activity: 0.2

O=C(Nc1cncnc1OCCCCO)c1ccc(F)c(-c2c(F)cccc2F)n1 [Example 19, 6-(2,6-difluorophenyl)-5-fluoro-N-(4-(4-hydroxybutoxy)pyrimidin-5-yl)picolinamide]
CFTR Activity: 0.3

CC(C)(O)CCCOc1ncncc1NC(=O)c1ccc(F)c(-c2c(F)cccc2F)n1 [Example 20, 6-(2,6-difluorophenyl)-5-fluoro-N-(4-((4-hydroxy-4-methylpentyl)oxy)pyrimidin-5-yl)picolinamide]
CFTR Activity: 0.1

O=C(Nc1cncnc1OCCC(O)CO)c1ccc(F)c(-c2c(F)cccc2F)n1 (centres unmarked) [Example 21, 6-(2,6-difluorophenyl)-N-(4-(3,4-dihydroxybutoxy)pyrimidin-5-yl)-5-fluoropicolinamide]
CFTR Activity: 0.05

O=C(Nc1cncnc1OCC1CCOCC1)c1ccc(F)c(-c2c(F)cccc2F)n1 [Example 22, 6-(2,6-difluorophenyl)-5-fluoro-N-(4-((tetrahydro-2H-pyran-4-yl)methoxy)pyrimidin-5-yl)picolinamide]
CFTR Activity: 0.1

Cl.Nc1cc(F)c(-c2c(F)cccc2F)nc1C(=O)Nc1cncnc1OCC1CCNCC1 [Example 23, 3-amino-6-(2,6-difluorophenyl)-5-fluoro-N-(4-(piperidin-4-ylmethoxy)pyrimidin-5-yl)picolinamide hydrochloride]
CFTR Activity: 2.2

Cl.Nc1cc(F)c(-c2c(F)cccc2F)nc1C(=O)Nc1cncnc1OC1CCNC1 (centres unmarked) [Example 24, 3-amino-6-(2,6-difluorophenyl)-5-fluoro-N-(4-(pyrrolidin-3-yloxy)pyrimidin-5-yl)picolinamide hydrochloride]
CFTR Activity: 1.9

Cl.Nc1cc(F)c(-c2c(F)cccc2F)nc1C(=O)Nc1cncnc1OC1CCNCC1 [Example 25, 3-amino-6-(2,6-difluorophenyl)-5-fluoro-N-(4-(piperidin-4-yloxy)pyrimidin-5-yl)picolinamide hydrochloride]
CFTR Activity: 3.1

Cl.Nc1cc(F)c(-c2c(F)cccc2F)nc1C(=O)Nc1cncnc1OC1CCCNCC1 (centres unmarked) [Example 26, 3-amino-N-(4-(azepan-4-yloxy)pyrimidin-5-yl)-6-(2,6-difluorophenyl)-5-fluoropicolinamide hydrochloride]
CFTR Activity: 4.0

Cl.Nc1cc(F)c(-c2c(F)cccc2F)nc1C(=O)Nc1cncnc1OC1CCC(N)CC1 (centres unmarked) [Example 27, 3-amino-N-(4-(((1r,4r)-4-aminocyclohexyl)oxy)pyrimidin-5-yl)-6-(2,6-difluorophenyl)-5-fluoropicolinamide hydrochloride]
CFTR Activity: 4.4

Cl.Nc1cc(F)c(-c2c(F)cccc2F)nc1C(=O)Nc1cncnc1OCC1CCNC1 (centres unmarked) [Example 28]
CFTR Activity: 2.3

NCC(CCl)Oc1ncncc1NC(=O)c1ccc(F)c(-c2c(F)cccc2F)n1 (centres unmarked) [Example 29, N-(4-((1-amino-3-chloropropan-2-yl)oxy)pyrimidin-5-yl)-6-(2,6-difluorophenyl)-5-fluoropicolinamide hydrochloride]
CFTR Activity: 1.8

Cl.NCC(CCl)COc1ncncc1NC(=O)c1ccc(F)c(-c2c(F)cccc2F)n1 (centres unmarked) [Example 30, N-(4-(3-amino-2-(chloromethyl)propoxy)pyrimidin-5-yl)-6-(2,6-difluorophenyl)-5-fluoropicolinamide hydrochloride]
CFTR Activity: 1.5

Cl.Nc1cc(F)c(-c2c(F)cccc2F)nc1C(=O)Nc1cncnc1OC1CNC1 [Example 31, 3-amino-N-(4-(azetidin-3-yloxy)pyrimidin-5-yl)-6-(2,6-difluorophenyl)-5-fluoropicolinamide hydrochloride]
CFTR Activity: 1.0

Cl.Nc1cc(F)c(-c2c(F)cccc2F)nc1C(=O)Nc1cncnc1OCC1CNC1 [Example 32, 3-amino-N-(4-(azetidin-3-ylmethoxy)pyrimidin-5-yl)-6-(2,6-difluorophenyl)-5-fluoropicolinamide hydrochloride]
CFTR Activity: 1.0

— patent US9981945B2, “Pyrimidine derivatives as CFTR modulators” (NuBridge BioSciences, priority 2015, dated 2018)
